Tests used:
[1] = system: Lysteria monocytogenes; assay: Lethal Lysteria monocytogenes infection in Balb/c mice; assay type: in vivo
[2] = system: Walker 256 tumoral cells; assay: Walker 256 tumor in female Wistar rats; assay type: in vivo; settings: daily subcutaneous doses of 0.5 mg/kg
[3] = system: spontaneous mammary carcinoma; assay: Transplanted spontaneous mammary carcinoma in WAB/Not mice; assay type: in vivo; settings: 5.0 mg/kg intraperitoneal, 3 doses per week, 7 weeks
Description: (§1) b) Antitumoral properties through immune response modulation.

[4] = Toxicity in Wistar rats, 90 days; assay type: in vivo; settings: doses up to 100 mg/kg
Description: (§2) e) In vivo toxicologic properties.

[5] = system: cytokines (IL-2, IFN); assay: Cytokines in spleen cell cultures from mice infected with L. monocytogenes; assay type: in vivo, Balb/c mice; settings: pre-treatment with 5.0 mg/kg; culture of spleen cells
Protocol: Levels of the same cytokines found in Balb/c mice infected with L. monocytogenes and subjected to pre-treatment with 5.0 mg/kg of the compound of the present invention supplied additional information about its biological activity. The increase in production of IL-2 e IFN- by the culture of spleen cells from these animals indicate a modulation of the inflammatory-like response, which is fundamental for eradication of the infection.

[6] = system: 53 tumor cell cultures representing 8 distinct tumor types and leukemia
Description: Cytotoxicity of the compound of the present invention was studied in the range of 10^−4 to 10^−8 M in 53 tumor cell cultures representing 8 distinct tumor types (lung, colon, central nervous system, melanoma, ovary, kidney, prostate and mammary) and leukemia.

[7] = system: lymphocytes and natural killer (NK) cells; assay: Functional ability of immunocompetent cells in mice with Ehrlich ascitic tumor; assay type: in vivo, Balb/c mice; settings: 5.0 mg/kg for 7 days
Protocol: (§3) Treatment of Balb/c mice, inoculated with Ehrlich ascitic tumor, with 5.0 mg/kg of the compound of the present invention for a period of 7 days was also able to modulate the functional ability of mature immunocompetent cells, supplying additional evidence about the action mechanisms of the compound. This treatment protocol stimulated the proliferative ability of lymphocytes and the cytotoxicity mediated by natural killer (NK) cells.

[8] = rat, in vivo, ip, 750 mg/kg
Protocol: The bioavailability of the compound of the present invention was evaluated in Wistar rats by administering a single intraperitoneal dose of 750 mg/kg.

[9] = system: granulocyte-macrophage precursor cells (CFU-GM); assay: Granulocyte-macrophage precursor cells (CFU-GM) in mice with Ehrlich ascitic tumor; assay type: in vivo, Balb/c mice
[10] = Immunotoxic properties in tufted capuchin monkey; design: species or system tufted capuchin monkey (Cebus apella); settings: in vivo
Protocol: f) Immunotoxic properties. […] The following organs were analyzed: bone marrow, spleen, lymph nodes, tonsils, and renal gland e Peyer's patch.
The spleen presented an increase of secondary follicles in the white pulp.
However, these cell alterations, found in the anatomopathological examination of the spleen from animals treated with the compound of the present invention, cannot be considered pathological in character; rather, they are due to immune system modulation caused by the use of the compound of the present invention.

[11] = system: Walker 256 tumoral cells; assay: Walker 256 tumor in gamma-irradiated immunodepressed Wistar rats; assay type: in vivo; settings: rats exposed to 4 Gy gamma radiation, subcutaneous administration
Description: c) Immunomodulatory properties.

[12] = system: plasmacytoma; assay: Subcutaneously inoculated plasmacytoma in Balb/c mice; assay type: in vivo; settings: 5.0 mg/kg intraperitoneal, 3 doses per week, 7 weeks
Description: as §1

[13] = system: cytokines (IL-2, IFN, IL-4, IL-10); assay: Cytokines in ConA-stimulated splenic cell cultures from mice with Ehrlich ascitic tumor; assay type: in vivo, Balb/c mice; settings: 5.0 mg/kg for 7 days
Protocol: as §3

[14] = Toxicity in tufted capuchin monkey, 30 days; assay type: in vivo, tufted capuchin monkey (Cebus apella); settings: doses up to 30 mg/kg
Description: as §2

[15] = system: parvovirus and distemper virus; assay: Treatment of dogs carrying parvovirus and distemper virus; assay type: in vivo
Description: a) Antiviral properties through immune response modulation.

[16] = system: granulocyte-macrophage precursor cells in the bone marrow; assay: In vitro growth and differentiation of bone marrow granulocyte-macrophage precursor cells; assay type: cell-based; settings: bone marrow from normal donor Balb/c mice
[17] = system: Lysteria monocytogenes; assay: In vitro antibacterial activity; assay type: cell-based
[18] = system: Ehrlich ascitic tumor; assay: Ehrlich ascitic tumor in Balb/c mice; assay type: in vivo; settings: 5.0 mg/kg subcutaneous for 7 days
Protocol: Treatment with doses of 5.0 mg/kg of the compound of the present invention, subcutaneously administered for a period of 7 days to Balb/c mice which had been intraperitoneally inoculated with Ehrlich ascitic tumor inhibited 50% of the tumoral growth and increased by 50% the survival of the animals.

[19] = Toxicity in mice, single doses; assay type: in vivo
Description: as §2

[20] = splenic cells stimulated by ConA

## protein aggregate of ammonium and magnesium phospholinoleate-palmitoleate anhydride [compound of the present invention]
[1]; pre-treatment 0.5 mg/kg subcutaneous for 7 days
  mice protected against lethal infection: 30%
[1]; pre-treatment 5.0 mg/kg subcutaneous for 7 days
  mice protected against lethal infection: 40%
[1]; pre-treatment subcutaneous for 7 days
  myeloprotection: promoted myeloprotection
[2]
  animals with tumoral regression: 50%
[3]
  increase in survival: 50%
  tumoral growth rate: significant decrease
[4]
  toxic effects: No toxic effects
[5]
  production of IFN-: increase
  production of IL-2: increase
[6]
  cytotoxicity for tumor cells: did not display cytotoxicity
[7]
  cytotoxicity mediated by natural killer (NK) cells: stimulated
  proliferative ability of lymphocytes: stimulated
[8]
  plasma t1/2: about 2 h
[9]; 5.0 mg/kg for 7 days
  CFU-GM count in the spleen and splenomegalia: significant reduction
[9]; 5.0 mg/kg for 7 days before or after inoculation
  myelopoiesis modulation: particularly efficient
[9]; 0.5 to 5.0 mg/kg subcutaneous for 7 days
  number of granulocyte-macrophage precursor cells in the bone marrow (CFU-GM): dose-dependent increase
[10]
  granulocytic series in the bone marrow: slight activation
  hematocrit and hemoglobin: minor decrease
  immunotoxic properties: No immunotoxic properties
  lymphocyte population: small increase
  red pulp of the spleen, anatomopathological examination: Erytrophagocytosis was visible
  secondary follicles in the white pulp of the spleen: increase
  total leucocytes, particularly polymorphonuclear neutrophils: increase
[11]
  response to treatment: did not respond
[12]
  increase in survival: 50%
  tumoral growth rate: significant decrease
[13]
  interleukin-4 (IL-4) levels: No alteration
[13]; mice with tumors
  production of interleukin-10 (IL-10): significantly reduced
[13]; [20]
  gamma-interferon (IFN-): significant increase
  interleukin-2 (IL-2): significant increase
[14]
  toxic effects: No toxic effects
[15]; blood of treated dogs vs infected controls treated with saline only
  white blood cell count: significant increase
[15]; dogs carrying parvovirus and distemper virus
  recovery rate: higher recovery rate
[16]
  in vitro effects on growth and differentiation of granulocyte-macrophage precursor cells: did not present in vitro effects
[17]
  in vitro antibacterial activity: does not display in vitro antibacterial activity
[18]
  increase in survival: 50%
  inhibition of tumoral growth: 50%
[19]; single doses up to 2000 mg/kg
  toxic effects: No toxic effects
[19]; stated jointly for the mouse, monkey and rat studies, treated vs control animals
  hematological, biochemical, physiological and anatomopathological parameters: No significant variation

Reference: US20060093628A1, “Protein aggregate magnesium-ammonium phospholinoleate-palmitoleate anhydride immonomodulator, its production process and formulation” (priority 2004, published 2006)
